Results reported in patent US11865090B2, “Tumor suppressive microRNAs for cancer therapy” (Hadasit Medical Research Services and Development Ltd., priority 2018, dated 2024).

Experiments:
miR-122 [1] = assay: In vivo miR-122 and CD24 mRNA levels after injection into MDR2 knockout mice; conditions: three months old MDR2 KO mice, 6 hours after administration
Protocol: Similar effect is also apparent in measurements performed 6 hours after administration of the inducing agent, to three months old MDR2 knockout (KO) mice (which is a mice that develops liver cancer). This is presented in FIGS. 8C-D, which show the increase in relative levels of miR-122 (FIG. 8C) in liver extracts (hepatocytes) and the reciprocal reduction of CD24 relative expression levels (FIG. 8D), in progenitor cells.

miR-122 [2] = assay: AGPAT1-3'UTR (miR-122 target site) luciferase reporter in Huh7 cells; type: cell-based, human; conditions: 10 μM for 24 hours, DNMT1 3'-UTR as negative control
Protocol: Next, Huh7 cells were transfected with a reporter plasmid carrying the human AGPAT1-3′UTR (miR-122 target site) or a negative control reporter plasmid, DNMT1 3′-UTR. Cells were treated for 24 hours with: 0.4% DMSO, or with 75 μM lauric acid (LA) or with RORα agonist (10 μM SR1078) for 24 hours. Presented in FIG. 4B are bar graphs showing the results of the Luciferase assay. Luciferase activity was measured 48 hours post transfection and normalized to Renilla Luciferase activity expressed from a co-transfected pRL plasmid.

miR-122 promoter [3] = assay: miR-122 promoter luciferase reporter (PmiR-122-900) in BNL-1ME cells; type: cell-based, mouse; conditions: 10 μM overnight, measured 48 hours post transfection, normalized to Renilla
Protocol: (§1) Huh7 cells or BNL-1ME cells were transfected with the reporter constructs PmiR-122-900 (wt) or PmiR-122-900 mutated (mut) at RORα binding site. These constructs harbour about 1 kb of miR-122 promoter sequence (wt or mutated at the ROR alpha binding site), ligated to a luciferase (Luc) reporter gene. […] Controls included incubation of the cells with 0.4% DMSO (negative control), or with 75 μM Lauric acid (LA), which is a known activator of ROR-alpha. Luciferase activity was measured 48 hours post transfection and normalized to Renilla Luciferase activity expressed from a co-transfected pRL plasmid.

miR-122 [4] = assay: qRT-PCR of miR-122 in medium of Huh7 cells; type: cell-based, human; conditions: 10 μM for 24 hours, normalized to spiked miR-39
Protocol: Shown in FIG. 4C is qRT-PCR analysis of miR-122 and miR-18 (negative control) in RNA extracted from the medium of Huh7 cells treated with 0.4% DMSO, 75 μM lauric acid (LA) or 10 μM RORα agonist (SR1078) for 24 hours. The microRNA levels in the cells' medium were normalized to spiked C. elegance miR-39.

miR-122 [5] = assay: In vivo miR-122 and CD24 mRNA levels after injection into BALB/C mice
Protocol: As shown in FIG. 8A—SR1078 agent (ROR alpha activator) was injected (1-5 μM) into BALB/C mice and was able to induce miR-122 expression within 3 hours, as indicated by the increased relative expression levels of miR-122 in the liver. miRNA-122 increased expression is in hepatocytes (“producing cells”).
The CD24 gene, the protein product of which is expressed on hepatic progenitors, is a target of miR-122.

miR-122 promoter [6] = assay: miR-122 promoter luciferase reporter (PmiR-122-900) in Huh7 cells; type: cell-based, human; conditions: 10 μM overnight, measured 48 hours post transfection, normalized to Renilla
Protocol: as §1

miR-34a = miR-34a expression and secretion in Huh7 cells (RT-qPCR); type: cell-based, human; conditions: 10 μM overnight
Protocol: Huh7 cells treated with ROR-alpha agonist SR1078 (10 μM) overnight (o/n). Upon treatment, primary miR-34a expression levels and mature miR-34a secretion were elevated. miR-34a levels were tested in the cells and in their culture medium using RT-qPCR. The results clearly show elevation in the levels of miR-34a in the cells, as well as a marked elevation of the miR-34a in the external medium, indicating the miR-34a is secreted from the cells.

SMILES: O=C(Nc1ccc(C(O)(C(F)(F)F)C(F)(F)F)cc1)c1ccc(C(F)(F)F)cc1 [SR1078]
- CD24 relative expression levels in progenitor cells (miR-122 [1]): reduction
- relative levels of miR-122 in liver extracts (hepatocytes) (miR-122 [1]): increase
- expression of active miR-122 acting on AGPAT1 reporter construct (Luciferase assay) (miR-122 [2]): increased expression of active miRNA
- miR-122 promoter activity (Luciferase reporter) (miR-122 promoter [3]): activation of the miR-122 promoter
- miRNA-122 levels in the medium (miR-122 [4]): increase
- relative levels (RQ) of mRNA of CD24 in hepatic progenitor cells (miR-122 [5]; after injection of SR1078): reduced
- relative expression levels of miR-122 in the liver (miR-122 [5]; injected (1-5 μM), 3 hours): increased
- miR-122 promoter activity (Luciferase reporter) (miR-122 promoter [6]): activation of the miR-122 promoter
- mature miR-34a secretion (miR-34a; RT-qPCR in culture medium): elevated
- primary miR-34a expression levels (miR-34a; RT-qPCR in the cells): elevated
